# Source: patent US20060035209A1, “Screening method” (priority 2002, published 2006)
# Assays:
# Assay type in all cases: in vivo, rat
# TSC-22 mRNA = TSC-22 mRNA expression level in kidneys of Zucker fatty rats (real-time quantitative RT-PCR)
# Excerpt: (§1) Male Zucker fatty rats (ZF rats, 18 weeks of age, Charles River Japan Inc.), which have hyperinsulinemia and spontaneously develop renal disease, were given oral administration of candesartan cilexetil (angiotensin II type 1 receptor antagonist) in suspension in 0.5% methylcellulose 100 cP once daily for 9 consecutive weeks. For a control group and a normal control group, male Zucker lean rats at the same weeks of age (ZL rats, Charles River Japan Inc.) were given oral administration of 0.5% methylcellulose 100 cP (vehicle) once daily for consecutive days. At 8 weeks of administration, 24-hour urine pooling was conducted, and urinary albumin excretion was measured using the A/G B Test Wako (Wako Pure Chemical Industries, Ltd.). At 9 weeks of administration, kidneys were collected and stored at −80° C. After the sample was disrupted, total RNA was extracted. A primer and a fluorescent probe were prepared on the basis of reported (ibidem) mRNA sequences, and various mRNA expression levels were measured by the real-time quantitative RT-PCR method using ABI PRISM7700 (Applied Biosystems).
# TGF-β1 mRNA = TGF-β1 mRNA expression level in kidneys of Zucker fatty rats (real-time quantitative RT-PCR)
# Excerpt: as §1
# Zucker fatty rats = assay: Urinary albumin excretion in Zucker fatty rats (24-hour urine pooling, A/G B Test Wako)
# Excerpt: as §1
# [1] = Zucker fatty rats, administration of the drug
structure (smiles),measurement,setting,value
"CCOc1nc2cccc(C(=O)OC(C)OC(=O)OC3CCCCC3)c2n1Cc1ccc(-c2ccccc2-c2nnn[nH]2)cc1 (stereo not drawn) [Candesartan cilexetil, candesartan cilexetil]",increase in TSC-22 mRNA expression level in the kidneys (in words),TSC-22 mRNA; [1],suppressed
same,mRNA expression level of TSC-22 in the kidneys (relative value with the expression level in the kidneys of Zucker lean rats as 1),"TSC-22 mRNA; male ZF rats, oral once daily, kidneys collected at 9 weeks of administration, n = 8-9, Mean (ZF vehicle 2.4)",1.6
same,increase in TGF-β1 mRNA expression level in the kidneys (in words),TGF-β1 mRNA; [1],suppressed
same,mRNA expression level of TGF-β1 in the kidneys (relative value with the expression level in the kidneys of Zucker lean rats as 1),"TGF-β1 mRNA; male ZF rats, oral once daily, kidneys collected at 9 weeks of administration, n = 8-9, Mean (ZF vehicle 2.1)",1.2
same,increase in urinary albumin excretion (in words),Zucker fatty rats; [1],suppressed
same,Urinary albumin excretion,"Zucker fatty rats; male ZF rats, oral once daily, at 8 weeks of administration, n = 8-9, Mean (ZF vehicle 401.5, ZL vehicle 48.5)",61.7 mg/day
